# From US20100119483A1, “PEPTIDE VIRAL ENTRY INHIBITORS” (Schering Corporation, priority 2004, published 2010)
# Values joined by “and” are separate entries in the source; they are usually repeats but may differ in a detail not shown here. Identical values can stand only once.
# System: HCV pseudoparticles
# Experiment: HCV pseudoparticle (HCVpp) entry assay in Huh7 hepatoma cells, luciferase readout
# Format: cell-based, hepatitis C virus
# Settings: for viral entry as a percentage of the uninhibited control: HCV entry, duplicates; for activity compared to the wild type 13-mer peptide: HCVpp entry inhibition, in words; for % of control at ~30 uM: percentage of hepatitis C virus cellular entry at 30 μM peptide vs uninhibited control
# In short: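 Pseudoparticles carrying HCV E1/E2 on an HIV luciferase backbone were produced in 293T cells; peptide was pre-incubated 1 h at 37 °C with Huh7 cells, then virus added and luciferase read after 72 h. Dose-response used 10-point 3-fold titration from 100 ug/ml; envelope-less particles controlled non-specific entry.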
# [1] = 0.1 nM of peptide (printed for three rows), two values per peptide and row
# [2] = 0.3 nM of peptide, two values per peptide
# [3] = 1 nM of peptide, two values per peptide
# [4] = 3 nM of peptide, two values per peptide
# [5] = 10 nM of peptide, two values per peptide
# [6] = 30 nM of peptide, two values per peptide
# [7] = 100 nM of peptide, two values per peptide
# [8] = 300 nM of peptide, two values per peptide
# [9] = 10000 nM of peptide, two values per peptide
# [10] = 30000 nM of peptide, two values per peptide
# [11] = 0.1 nM of peptide (three lines)
substance,measurement,setting,value
A-I-K-W-E-Y-V-L-L-L-F-L-K [SEQ ID NO: 137],"% control (HCVpp entry), lysine scanning",[1],72 % control and 123 % control and 80 % control and 82 % control and 103 % control and 135 % control
same,"% control (HCVpp entry), lysine scanning",[2],58 % control and 92 % control
same,"% control (HCVpp entry), lysine scanning",[3],80 % control and 106 % control
same,"% control (HCVpp entry), lysine scanning",[4],82 % control and 97 % control
same,"% control (HCVpp entry), lysine scanning",[5],100 % control and 89 % control
same,"% control (HCVpp entry), lysine scanning",[6],78 % control and 94 % control
same,"% control (HCVpp entry), lysine scanning",[7],68 % control and 74 % control
same,"% control (HCVpp entry), lysine scanning",[8],54 % control and 77 % control
same,"% control (HCVpp entry), lysine scanning",[9],23 % control and 28 % control
A-I-K-W-E-Y-V-L-L-L-F-P-L (AIKWEYVLLLFPL; HCV peptide) [SEQ ID NO: 126],"% control (HCVpp entry), proline scanning",[1],83 % control and 66 % control and 89 % control and 87 % control and 104 % control and 119 % control
same,"% control (HCVpp entry), proline scanning",[2],88 % control and 91 % control
same,"% control (HCVpp entry), proline scanning",[3],88 % control and 93 % control
same,"% control (HCVpp entry), proline scanning",[4],98 % control and 89 % control
same,"% control (HCVpp entry), proline scanning",[5],86 % control and 76 % control
same,"% control (HCVpp entry), proline scanning",[6],83 % control and 82 % control
same,"% control (HCVpp entry), proline scanning",[7],68 % control and 81 % control
same,"% control (HCVpp entry), proline scanning",[8],72 % control and 85 % control
same,"% control (HCVpp entry), proline scanning",[9],43 % control and 44 % control
same,"% control (HCVpp entry), proline scanning",[10],55 % control and 80 % control
A-I-K-W-E-Y-V-P-L-L-F-L-L (AIKWEYVPLLFLL; HCV peptide) [SEQ ID NO: 122],"% control (HCVpp entry), proline scanning",[1],81 % control and 70 % control and 89 % control and 86 % control and 115 % control and 111 % control
same,"% control (HCVpp entry), proline scanning",[2],105 % control and 83 % control
same,"% control (HCVpp entry), proline scanning",[3],73 % control and 100 % control
same,"% control (HCVpp entry), proline scanning",[4],106 % control and 80 % control
same,"% control (HCVpp entry), proline scanning",[5],85 % control and 67 % control
same,"% control (HCVpp entry), proline scanning",[6],70 % control and 113 % control
same,"% control (HCVpp entry), proline scanning",[7],75 % control and 59 % control
same,"% control (HCVpp entry), proline scanning",[8],76 % control and 53 % control
same,"% control (HCVpp entry), proline scanning",[9],54 % control and 43 % control
LLFLLLVYEWKIA [retro],viral entry as a percentage of the uninhibited control,[11],90%
same,viral entry as a percentage of the uninhibited control,"0.1 nM of peptide (three lines), 0.0001 µM",107%
same,viral entry as a percentage of the uninhibited control,"0.3 nM of peptide, 0.0003 µM",88% and 98% and 86% and 95% and 91%
same,viral entry as a percentage of the uninhibited control,"1 nM of peptide, 0.001 µM",94% and 86% and 97% and 81% and 51% and 88%
same,viral entry as a percentage of the uninhibited control,"3 nM of peptide, 0.003 µM",62% and 99% and 121% and 76% and 77% and 66%
same,viral entry as a percentage of the uninhibited control,"10 nM of peptide, 0.01 µM",52% and 95% and 93% and 81% and 68% and 77%
same,viral entry as a percentage of the uninhibited control,"100 nM of peptide, 0.1 µM",72% and 101% and 79% and 99% and 65% and 62%
same,viral entry as a percentage of the uninhibited control,"30000 nM of peptide, 30 µM",104% and 110% and 73% and 90% and 96% and 80%
same,activity compared to the wild type 13-mer peptide,,completely lost activity
A-I-K-W-E-Y-V-L-L-L-F-L-A [SEQ ID NO: 97],"% control (HCVpp entry), alanine scanning",[1],80 % control and 101 % control and 105 % control and 102 % control and 95 % control and 97 % control
same,"% control (HCVpp entry), alanine scanning",[2],72 % control and 102 % control
same,"% control (HCVpp entry), alanine scanning",[3],76 % control and 92 % control
same,"% control (HCVpp entry), alanine scanning",[4],72 % control and 92 % control
same,"% control (HCVpp entry), alanine scanning",[5],79 % control and 69 % control
same,"% control (HCVpp entry), alanine scanning",[6],55 % control and 80 % control
same,"% control (HCVpp entry), alanine scanning",[7],46 % control and 51 % control
same,"% control (HCVpp entry), alanine scanning",[8],30 % control and 47 % control
same,"% control (HCVpp entry), alanine scanning",[9],19 % control and 37 % control
same,"% control (HCVpp entry), alanine scanning",[10],53 % control and 50 % control
same,% of control at ~30 uM,,24%
A-I-K-W-E-Y-P-L-L-L-F-L-L (AIKWEYPLLLFLL; HCV peptide) [SEQ ID NO: 121],"% control (HCVpp entry), proline scanning",[1],77 % control and 95 % control and 91 % control and 115 % control and 104 % control and 90 % control
same,"% control (HCVpp entry), proline scanning",[2],68 % control and 84 % control
same,"% control (HCVpp entry), proline scanning",[3],76 % control and 110 % control
same,"% control (HCVpp entry), proline scanning",[4],85 % control and 87 % control
same,"% control (HCVpp entry), proline scanning",[5],75 % control and 66 % control
same,"% control (HCVpp entry), proline scanning",[6],70 % control and 82 % control
same,"% control (HCVpp entry), proline scanning",[7],44 % control and 63 % control
same,"% control (HCVpp entry), proline scanning",[8],42 % control and 30 % control
same,"% control (HCVpp entry), proline scanning",[10],32 % control and 41 % control
A-I-K-K-E-Y-V-L-L-L-F-L-L (AIKKEYVLLLFLL; HCV peptide) [SEQ ID NO: 128],"% control (HCVpp entry), lysine scanning",[1],80 % control and 86 % control and 107 % control and 102 % control and 87 % control and 103 % control
same,"% control (HCVpp entry), lysine scanning",[2],64 % control and 88 % control
same,"% control (HCVpp entry), lysine scanning",[3],99 % control and 72 % control
same,"% control (HCVpp entry), lysine scanning",[4],84 % control and 81 % control
same,"% control (HCVpp entry), lysine scanning",[5],63 % control and 92 % control
same,"% control (HCVpp entry), lysine scanning",[6],59 % control and 55 % control
same,"% control (HCVpp entry), lysine scanning",[7],52 % control and 46 % control
same,"% control (HCVpp entry), lysine scanning",[8],22 % control and 28 % control
same,"% control (HCVpp entry), lysine scanning",[9],7 % control and 4 % control
"A-I-K-W-E-Y-V-L-L-L-F-A-L (AIKWEYVLLLFAL; HCV peptide) [SEQ ID NO: 96, Ala-scan]","% control (HCVpp entry), alanine scanning",[1],95 % control and 86 % control and 100 % control and 96 % control and 72 % control and 132 % control
same,"% control (HCVpp entry), alanine scanning",[2],91 % control and 98 % control
same,"% control (HCVpp entry), alanine scanning",[3],124 % control and 78 % control
same,"% control (HCVpp entry), alanine scanning",[4],76 % control and 85 % control
same,"% control (HCVpp entry), alanine scanning",[5],58 % control and 73 % control
same,"% control (HCVpp entry), alanine scanning",[6],63 % control and 67 % control
same,"% control (HCVpp entry), alanine scanning",[7],24 % control and 41 % control
same,"% control (HCVpp entry), alanine scanning",[8],36 % control and 26 % control
same,"% control (HCVpp entry), alanine scanning",[9],33 % control and 20 % control
same,"% control (HCVpp entry), alanine scanning",[10],31 % control
same,% of control at ~30 uM,,24%
"A-A-K-W-E-Y-V-L-L-L-F-L-L (AAKWEYVLLLFLL; HCV peptide) [SEQ ID NO: 87, Ala-scan]","% control (HCVpp entry), alanine scanning",[1],90 % control and 108 % control and 113 % control and 93 % control and 104 % control
same,"% control (HCVpp entry), alanine scanning",[2],84 % control and 75 % control
same,"% control (HCVpp entry), alanine scanning",[3],110 % control and 93 % control
same,"% control (HCVpp entry), alanine scanning",[4],92 % control and 68 % control
same,"% control (HCVpp entry), alanine scanning",[5],45 % control and 57 % control
same,"% control (HCVpp entry), alanine scanning",[6],42 % control and 51 % control
same,"% control (HCVpp entry), alanine scanning",[7],19 % control and 15 % control
same,"% control (HCVpp entry), alanine scanning",[8],16 % control and 13 % control
same,"% control (HCVpp entry), alanine scanning",[9],15 % control and 23 % control
same,"% control (HCVpp entry), alanine scanning",[10],11 % control and 6 % control
same,% of control at ~30 uM,,14%
A-I-K-W-E-Y-V-L-L-P-F-L-L (AIKWEYVLLPFLL; HCV peptide) [SEQ ID NO: 124],"% control (HCVpp entry), proline scanning",[1],87 % control and 98 % control and 89 % control and 104 % control and 109 % control and 97 % control
same,"% control (HCVpp entry), proline scanning",[2],74 % control and 88 % control
same,"% control (HCVpp entry), proline scanning",[3],89 % control and 102 % control
same,"% control (HCVpp entry), proline scanning",[4],80 % control and 86 % control
same,"% control (HCVpp entry), proline scanning",[5],67 % control and 102 % control
same,"% control (HCVpp entry), proline scanning",[6],48 % control and 71 % control
same,"% control (HCVpp entry), proline scanning",[7],66 % control and 83 % control
same,"% control (HCVpp entry), proline scanning",[8],85 % control and 68 % control
same,"% control (HCVpp entry), proline scanning",[9],85 % control and 60 % control
same,"% control (HCVpp entry), proline scanning",[10],98 % control and 67 % control
LLFLLLVYEWKIA [retro-inverso],viral entry as a percentage of the uninhibited control,[11],97%
same,viral entry as a percentage of the uninhibited control,"0.3 nM of peptide, 0.0003 µM",91% and 81% and 74% and 99% and 126% and 117%
same,viral entry as a percentage of the uninhibited control,"1 nM of peptide, 0.001 µM",83% and 72% and 91% and 115% and 106%
same,viral entry as a percentage of the uninhibited control,"3 nM of peptide, 0.003 µM",88% and 68% and 78% and 92% and 86% and 98%
same,viral entry as a percentage of the uninhibited control,"10 nM of peptide, 0.01 µM",66% and 100% and 76% and 84% and 128% and 104%
same,viral entry as a percentage of the uninhibited control,"30 nM of peptide, 0.03 µM",68% and 62% and 76% and 113% and 121% and 110%
same,viral entry as a percentage of the uninhibited control,"30000 nM of peptide, 30 µM",107% and 87% and 103% and 125% and 95%
same,activity compared to the wild type 13-mer peptide,,completely lost activity
A-I-K-W-E-K-V-L-L-L-F-L-L (AIKWEKVLLLFLL; HCV peptide) [SEQ ID NO: 130],"% control (HCVpp entry), lysine scanning",[1],122 % control and 84 % control and 106 % control and 96 % control and 105 % control and 93 % control
same,"% control (HCVpp entry), lysine scanning",[2],103 % control and 100 % control
same,"% control (HCVpp entry), lysine scanning",[3],114 % control and 89 % control
same,"% control (HCVpp entry), lysine scanning",[4],95 % control and 81 % control
same,"% control (HCVpp entry), lysine scanning",[5],90 % control and 102 % control
same,"% control (HCVpp entry), lysine scanning",[6],74 % control and 75 % control
same,"% control (HCVpp entry), lysine scanning",[8],33 % control and 19 % control
